The values that follow come from PubChem BioAssay AID248 (DTP/NCI, 2004).

This assay has as its system L1210 leukemia ip in BDF1 mice, survival T/C. In words: NCI In Vivo Anticancer Drug Screen. Data for tumor model L1210 Leukemia (intraperitoneal) in B6D2F1 (BDF1) mice. Particulars: endpoint: mean survival time, higher = longer survival. The essentials: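 Value reflects the ratio of survival in compound-treated mice to survival in vehicle-treated controls, with both groups carrying the same transplanted tumor.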

The mark [1] stands for this setting: dose: 200.0 mg/kg/injection, schedule: Q01DX001 (ip), vehicle: saline.
The mark [2] stands for this setting: dose: 50.0 mg/kg/injection, schedule: Q01DX001 (ip), vehicle: carboxymethylcellulose (CMC).
The mark [3] stands for this setting: dose: 400.0 mg/kg/injection, schedule: Q01DX001 (ip), vehicle: carboxymethylcellulose (CMC).
Setting [4] is: dose: 100.0 mg/kg/injection, schedule: Q04DX002 (ip), vehicle: saline.
The mark [5] stands for this setting: dose: 25.0 mg/kg/injection, schedule: Q01DX009 (ip), vehicle: saline with Tween-80.
Setting [6] is: dose: 50.0 mg/kg/injection, schedule: Q01DX009 (ip), vehicle: saline with Tween-80.
Setting [7] is: dose: 100.0 mg/kg/injection, schedule: Q01DX009 (ip), vehicle: saline with Tween-80.
Setting [8] is: dose: 200.0 mg/kg/injection, schedule: Q01DX009 (ip), vehicle: saline with Tween-80.
Setting [9] is: dose: 400.0 mg/kg/injection, schedule: Q01DX009 (ip), vehicle: saline with Tween-80.
Setting [10] is: dose: 100.0 mg/kg/injection, schedule: Q01DX009 (ip), vehicle: Klucel (hydroxypropylcellulose) (HPC).
[11] abbreviates: dose: 200.0 mg/kg/injection, schedule: Q01DX009 (ip), vehicle: Klucel (hydroxypropylcellulose) (HPC).

Each structure is given as a SMILES string. Values joined by “and” are separate entries in the source; they are usually repeats but may differ in a detail not shown here. Identical values can stand only once. Toxic doses and inconclusive results are not listed.

Regarding `O=C(Cc1c[nH]c2ccccc12)N/N=C\c1c[nH]c2ccccc12`, the T/C runs as follows: under setting [1], 97 % of control; (dose: 400.0 mg/kg/injection, schedule: Q01DX001 (ip), vehicle: saline) 92 % of control.

For the compound `N=C(N)CSS(=O)(=O)O`, the T/C was 107 % of control (dose: 12.5 mg/kg/injection, schedule: Q01DX009 (ip), vehicle: Klucel (hydroxypropylcellulose) (HPC)); 104 % of control (dose: 12.5 mg/kg/injection, schedule: Q04DX002 (ip), vehicle: Klucel (hydroxypropylcellulose) (HPC)); 107 % of control (dose: 25.0 mg/kg/injection, schedule: Q01DX009 (ip), vehicle: Klucel (hydroxypropylcellulose) (HPC)); 101 % of control (dose: 25.0 mg/kg/injection, schedule: Q04DX002 (ip), vehicle: Klucel (hydroxypropylcellulose) (HPC)); 93 % of control (dose: 50.0 mg/kg/injection, schedule: Q04DX002 (ip), vehicle: Klucel (hydroxypropylcellulose) (HPC)).

`Cc1csc[n+]1C`: the T/C reads like this: (dose: 75.0 mg/kg/injection, schedule: Q01DX001 (ip), vehicle: saline) 98 % of control; (dose: 150.0 mg/kg/injection, schedule: Q01DX001 (ip), vehicle: saline) 102 % of control.

For the compound `O=NN(CCO)C(=O)Nc1c[nH]c(=O)[nH]c1=O`, the T/C was 118 % of control (dose: 12.5 mg/kg/injection, schedule: Q01DX001 (ip), vehicle: carboxymethylcellulose (CMC)); 118 % of control (dose: 25.0 mg/kg/injection, schedule: Q01DX001 (ip), vehicle: carboxymethylcellulose (CMC)); 122 % of control under setting [2]; 190 % of control under setting [3].

`CCCCCc1nc2c(c3c1CCCC3)CCCC2`: the T/C runs as follows: (dose: 75.0 mg/kg/injection, schedule: Q01DX001 (ip), vehicle: other) 102 % of control; (dose: 150.0 mg/kg/injection, schedule: Q01DX001 (ip), vehicle: other) 96 % of control.

Take `O=C1c2ccccc2-c2cc(Br)c([N+](=O)[O-])cc21`: the T/C runs as follows: under setting [2], 93 % of control; (dose: 100.0 mg/kg/injection, schedule: Q01DX001 (ip), vehicle: carboxymethylcellulose (CMC)) 96 % of control; (dose: 200.0 mg/kg/injection, schedule: Q01DX001 (ip), vehicle: carboxymethylcellulose (CMC)) 86 % of control; under setting [3], 88 % of control.

Turning to `CCOc1ccc(-n2c(C)nc3ccccc3c2=O)cc1CNCCBr`, the T/C is 103 % of control (dose: 50.0 mg/kg/injection, schedule: Q01DX001 (ip), vehicle: saline); 111 % of control (dose: 100.0 mg/kg/injection, schedule: Q01DX001 (ip), vehicle: saline); 111 % of control under setting [1].

`CC#N.[CH-]=C(C)C.[Cl][Pt][Cl]`: the T/C runs as follows: (dose: 6.25 mg/kg/injection, schedule: Q04DX003 (ip), vehicle: water) 95 % of control; (dose: 12.5 mg/kg/injection, schedule: Q04DX003 (ip), vehicle: water) 97 % of control; (dose: 25.0 mg/kg/injection, schedule: Q04DX003 (ip), vehicle: water) 100 % of control; (dose: 50.0 mg/kg/injection, schedule: Q04DX003 (ip), vehicle: water) 101 % of control.

For the compound `CCN(C)CCC(C=O)(c1cccc2ccccc12)C(C)C` (stereo unspecified), the T/C under setting [4] was 100 % of control.

As to `CC(C)(NCCNC(C)(C)[P+](=O)O)[P+](=O)O`, the T/C is, setting by setting: (dose: 100.0 mg/kg/injection, schedule: Q04DX003 (ip), vehicle: Klucel (hydroxypropylcellulose) (HPC)) 96 % of control; (dose: 200.0 mg/kg/injection, schedule: Q04DX003 (ip), vehicle: Klucel (hydroxypropylcellulose) (HPC)) 93 % of control; (dose: 400.0 mg/kg/injection, schedule: Q04DX003 (ip), vehicle: Klucel (hydroxypropylcellulose) (HPC)) 93 % of control.

For the compound `CC(CN1CCN(CCOCCO)CC1)CN1c2ccccc2Sc2ccccc21` (stereo unspecified), the T/C is, setting by setting: (dose: 3.12 mg/kg/injection, schedule: Q01DX009 (ip), vehicle: saline) 103 % of control; (dose: 6.25 mg/kg/injection, schedule: Q01DX009 (ip), vehicle: saline) 97 % of control; (dose: 12.5 mg/kg/injection, schedule: Q01DX009 (ip), vehicle: saline) 108 % of control; (dose: 25.0 mg/kg/injection, schedule: Q01DX009 (ip), vehicle: saline) 113 % of control; (dose: 25.0 mg/kg/injection, schedule: Q04DX003 (ip), vehicle: saline) 96 % of control; (dose: 50.0 mg/kg/injection, schedule: Q04DX003 (ip), vehicle: saline) 102 % of control.

Take `c1cnc2nc3[nH]c4ccccc4c3nc2c1`: the T/C reads like this: under setting [5], 92 % of control; (dose: 50.0 mg/kg/injection, schedule: Q01DX001 (oral), vehicle: saline with Tween-80) 107 % of control; under setting [6], 92 % of control and 89 % of control; (dose: 50.0 mg/kg/injection, schedule: Q04DX003 (ip), vehicle: saline with Tween-80) 96 % of control; (dose: 100.0 mg/kg/injection, schedule: Q01DX001 (oral), vehicle: saline with Tween-80) 115 % of control; under setting [7], 94 % of control and 91 % of control. The T/C is 88 % of control (dose: 100.0 mg/kg/injection, schedule: Q04DX003 (ip), vehicle: saline with Tween-80); 110 % of control (dose: 200.0 mg/kg/injection, schedule: Q01DX001 (oral), vehicle: saline with Tween-80); 92 % of control and 94 % of control under setting [8]; 90 % of control (dose: 200.0 mg/kg/injection, schedule: Q04DX003 (ip), vehicle: saline with Tween-80); 108 % of control (dose: 400.0 mg/kg/injection, schedule: Q01DX001 (oral), vehicle: saline with Tween-80); 92 % of control under setting [9]. Further, the T/C by setting is: (dose: 400.0 mg/kg/injection, schedule: Q04DX003 (ip), vehicle: saline with Tween-80) 86 % of control; (dose: 800.0 mg/kg/injection, schedule: Q01DX001 (oral), vehicle: saline with Tween-80) 105 % of control.

`COc1cc(NC(C)=O)ccn1`: the T/C (dose: 100.0 mg/kg/injection, schedule: Q04DX003 (ip), vehicle: acetone) was 89 % of control; the T/C (dose: 200.0 mg/kg/injection, schedule: Q04DX003 (ip), vehicle: acetone) was 100 % of control; the T/C (dose: 400.0 mg/kg/injection, schedule: Q04DX003 (ip), vehicle: acetone) was 110 % of control.

In the case of `NC(N)=NC(N)=Nc1ccc(S(=O)(=O)c2ccc(N=C(N)N=C(N)N)cc2)cc1`, the T/C was 95 % of control under setting [7] and 95 % of control under setting [8].

For the compound `CC(=O)[C@@]1(O)CC[C@H]2[C@@H]3C=C(C)C4=CC(=O)C=C[C@]4(C)[C@@]3(F)[C@@H](O)C[C@@]21C`, the T/C (dose: 50.0 mg/kg/injection, schedule: Q01DX001 (sc), vehicle: steriod suspending solution) is 96 % of control; the T/C (dose: 100.0 mg/kg/injection, schedule: Q01DX001 (sc), vehicle: steriod suspending solution) was 102 % of control; the T/C (dose: 200.0 mg/kg/injection, schedule: Q01DX001 (sc), vehicle: steriod suspending solution) was 105 % of control; the T/C (dose: 400.0 mg/kg/injection, schedule: Q01DX001 (sc), vehicle: steriod suspending solution) was 118 % of control.

Consider `C=CCCCCCCCCC(=O)N(C)OC`, for which the T/C was 97 % of control under setting [5]; 105 % of control under setting [6]; 94 % of control and 92 % of control under setting [7].

On to `CC(=O)Nc1ccccc1I`, for which the T/C is, setting by setting: under setting [10], 104 % of control; under setting [11], 96 % of control; (dose: 400.0 mg/kg/injection, schedule: Q01DX009 (ip), vehicle: Klucel (hydroxypropylcellulose) (HPC)) 95 % of control.

For `O=C(CN1C(=O)C(=O)O/C1=C/c1ccccc1)OCc1ccccc1`, the T/C was 105 % of control under setting [10] and 103 % of control under setting [11].

In the case of `COc1ccc(/C=C/C(=O)c2ccc(OC)c(OC)c2)cc1OC`, the T/C under setting [7] is 100 % of control, the T/C under setting [8] was 105 % of control and the T/C under setting [9] is 102 % of control.

`Cc1c(C(=O)N(C)C)no[n+]1[O-]`: the T/C is 102 % of control (dose: 25.0 mg/kg/injection, schedule: Q04DX002 (ip), vehicle: saline); 106 % of control (dose: 50.0 mg/kg/injection, schedule: Q04DX002 (ip), vehicle: saline); 98 % of control under setting [4].

For `COc1ccc(CCN2COc3ccc4ccc(=O)oc4c3C2)cc1OC`, the T/C reads like this: (dose: 100.0 mg/kg/injection, schedule: Q04DX003 (ip), vehicle: saline sonified) 111 % of control; (dose: 200.0 mg/kg/injection, schedule: Q04DX003 (ip), vehicle: saline sonified) 111 % of control; (dose: 400.0 mg/kg/injection, schedule: Q04DX003 (ip), vehicle: saline sonified) 106 % of control.
